The source of these data is US9169307B2 (The Trustees of the University of Pennsylvania, priority 2005, dated 2015).

Like-named read-outs stand apart in the source and are kept apart here. Bridges are numbered along the chain shown (N, C = ends). [ ]: non-standard residue; d: D form. Trp(5-F) = N[C@@H](Cc1c[nH]c2ccc(F)cc12)C(=O)O; Trp(6-F) = N[C@@H](Cc1c[nH]c2cc(F)ccc12)C(=O)O

The subject of assay [1] is activation of the complement system by immunocomplexes (C3b/iC3b deposition). Particulars: cited from earlier work; for Activity over compstatin: Table 1A, previously described analogs (WO2004/026328).
The test system is the same in assay [2]. The experiment in a line: Complement inhibition assay (ELISA): inhibition of C3 fixation to ovalbumin-anti-ovalbumin complexes in normal human plasma. Particulars: for Activity over compstatin: Table 1B, exemplary analogs described herein; for Relative activity: Table 2, relative to the activity of compstatin (SEQ ID NO: 1); for complement inhibitory activity (in words): at the concentrations tested; for amount of conjugate required to achieve the same inhibition as Ac-V4(1-methyl-W)/H9A: relative to Ac-V4(1-methyl-W)/H9A (SEQ ID NO:23). The format is biochemical. The method, then: Complement activation inhibition was assessed by measuring the inhibition of C3 fixation to ovalbumin-anti-ovalbumin complexes in normal human plasma. Microtiter wells were coated with 50 μl of ovalbumin (10 mg/ml) for 2 hr at 25° C. (overnight at 4° C.). The wells were saturated with 200 μl of 10 mg/ml BSA for 1 hr at 25° C. and then a rabbit anti-ovalbumin antibody was added to form an immunocomplex by which complement can be activated. Thirty microliters of peptides at various concentrations were added directly to each well followed by 30 μl of a 1:80 dilution of human plasma. After 30 min incubation, bound C3b/iC3b was detected using a goat anti-human C3 HRP-conjugated antibody. Color was developed by adding ABTS peroxidase substrate and optical density measured at 405 nm.
The % inhibition was plotted against the peptide concentration, and the resulting data set was fit to the logistic dose-response function using Origin 7.0 software. […] IC50 values were obtained from the fitted parameters that achieved the lowest chi-square value.
(ELISA stands for enzyme-linked immunosorbent assay.)

A further assay addresses C3 (Homo sapiens, UniProt P01024). The experiment in a line: Isothermal titration calorimetry of the interaction of C3 with compstatin analogs. The format is binding. The method, then:
Isothermal titration calorimetry experiments were performed using the Microcal VP-ITC calorimeter (Microcal Inc, Northampton, Mass.). Protein concentrations of 3.5-5 μM and peptide concentrations of 80-200 μM were used for these experiments. All titrations were performed in PBS (10 mM phosphate buffer with 150 mM NaCl, pH 7.4). In each experiment, the target protein, C3, was loaded into the cell, and peptide was loaded into the syringe. All experiments were performed at 25° C. and for each experiment, 2-μl peptide injections were made into the cell containing the protein. In each experiment, the raw isotherms were corrected for the heats of dilution by subtracting the isotherms representing peptide injections into the buffer. The resulting isotherms were fit to various models within the Origin 7.0 software, and the model that achieved the lowest chi square value was deemed to be appropriate for the respective dataset. Binding affinity and entropy values were plotted against log P values.
(In general: ITC needs no label: the signal is the heat of the interaction.)

For assay [3], the system named is alternative pathway-mediated erythrocyte lysis. Particulars: cited from earlier work.
Where [4] appears, read: relative to Ac-V4W/H9A (SEQ ID NO:5).

C3, sequence (P01024 23-1663): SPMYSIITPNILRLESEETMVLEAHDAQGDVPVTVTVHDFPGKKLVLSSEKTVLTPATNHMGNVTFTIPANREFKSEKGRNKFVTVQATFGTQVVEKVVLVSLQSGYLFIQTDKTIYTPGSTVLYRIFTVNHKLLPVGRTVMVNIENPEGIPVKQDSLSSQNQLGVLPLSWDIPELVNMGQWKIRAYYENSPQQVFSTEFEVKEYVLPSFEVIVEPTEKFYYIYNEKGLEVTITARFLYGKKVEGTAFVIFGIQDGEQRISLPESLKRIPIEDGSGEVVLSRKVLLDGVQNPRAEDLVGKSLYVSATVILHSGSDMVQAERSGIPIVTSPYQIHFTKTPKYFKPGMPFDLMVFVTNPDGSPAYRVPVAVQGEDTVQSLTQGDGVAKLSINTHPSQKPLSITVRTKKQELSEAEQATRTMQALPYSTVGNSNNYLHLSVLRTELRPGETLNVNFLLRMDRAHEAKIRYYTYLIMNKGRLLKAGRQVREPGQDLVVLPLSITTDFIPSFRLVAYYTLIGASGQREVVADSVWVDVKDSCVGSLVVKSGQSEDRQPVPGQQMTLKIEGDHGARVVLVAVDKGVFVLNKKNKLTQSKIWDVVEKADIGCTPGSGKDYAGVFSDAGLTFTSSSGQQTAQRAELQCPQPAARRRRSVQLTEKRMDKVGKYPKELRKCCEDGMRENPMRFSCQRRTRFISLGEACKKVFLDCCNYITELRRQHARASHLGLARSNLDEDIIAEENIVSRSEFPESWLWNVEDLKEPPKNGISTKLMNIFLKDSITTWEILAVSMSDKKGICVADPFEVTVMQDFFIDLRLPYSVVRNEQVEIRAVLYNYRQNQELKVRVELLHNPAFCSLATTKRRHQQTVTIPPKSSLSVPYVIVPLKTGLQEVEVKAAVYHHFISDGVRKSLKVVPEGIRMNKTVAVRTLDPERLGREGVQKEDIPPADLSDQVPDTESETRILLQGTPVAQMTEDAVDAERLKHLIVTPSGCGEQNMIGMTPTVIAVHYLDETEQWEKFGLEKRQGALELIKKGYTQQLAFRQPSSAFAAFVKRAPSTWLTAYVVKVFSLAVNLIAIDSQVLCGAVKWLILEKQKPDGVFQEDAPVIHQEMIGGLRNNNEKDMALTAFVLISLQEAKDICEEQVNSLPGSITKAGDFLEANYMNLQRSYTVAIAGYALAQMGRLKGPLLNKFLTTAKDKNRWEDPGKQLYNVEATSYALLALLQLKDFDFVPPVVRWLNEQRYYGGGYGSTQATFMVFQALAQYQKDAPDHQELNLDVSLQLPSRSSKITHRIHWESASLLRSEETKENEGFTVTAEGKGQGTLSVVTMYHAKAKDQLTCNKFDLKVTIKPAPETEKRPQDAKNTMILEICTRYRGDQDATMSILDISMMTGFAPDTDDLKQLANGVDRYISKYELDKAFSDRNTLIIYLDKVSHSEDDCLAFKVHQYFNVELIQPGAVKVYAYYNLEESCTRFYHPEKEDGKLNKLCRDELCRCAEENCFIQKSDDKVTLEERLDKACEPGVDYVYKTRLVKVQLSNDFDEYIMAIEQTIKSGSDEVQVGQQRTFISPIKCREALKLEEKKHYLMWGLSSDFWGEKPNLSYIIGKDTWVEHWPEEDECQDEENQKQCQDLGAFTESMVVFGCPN

With “Ac-ICV(2-Igl)QDWGAHRCT-CONH2 [Ac-V4Igl/H9A]”, the Activity over compstatin in assay [1] was 39 × more.
By IC50 is commonly meant the concentration at which inhibition is half-maximal. In assay [2], “H-GICV(6f-l-W)QD(6f-l-W)GAHRCTN-COOH (H-GICV[Trp(6-F)]QD[Trp(6-F)]GAHRCTN-OH; disulfide 3-13 (inferred)) [G(−1)/V4(6fW)/W7(6fW)/H9A/N14, bacterially expressed compstatin analog]” yielded an Activity over compstatin of 126 × more and a Relative activity of 126. The IC50 in assay [2] (Table 2, expressed peptides) is 430 nM. Besides, in assay [2] (setting [4]), the “fold higher activity than Ac-V4W/H9A” value is 2.8 fold.
In assay [2], “H-GICV(5f-l-W)QD(5f-l-W)GAHRCTN-COOH (H-GICV[Trp(5-F)]QD[Trp(5-F)]GAHRCTN-OH; disulfide 3-13 (inferred)) [G(−1)/V4(5fW)/W7(5fW)/H9A/N14, bacterially expressed compstatin analog]” displayed an Activity over compstatin of 112 × more and a Relative activity of 112. Also, the half-maximal inhibitory concentration (IC50) in assay [2] (Table 2, expressed peptides) is 480 nM. Further, the “fold higher activity than Ac-V4W/H9A” value in assay [2] (setting [4]) is listed as 2.5 fold.
“Ac-V4(1-methyl-W)/H9A-K-PEG 5000: Ac-V4(1-methyl-W)/H9A with C-terminal lysine whose side chain is linked to PEG 5000 (ICVWQDWGAHRCTK; N-acetyl; 1-methyl-Trp at 4; C-terminal Lys-PEG5000)”: in assay [2], the “complement inhibitory activity (in words)” value is “active in inhibiting complement activation” and the “amount of conjugate required to achieve the same inhibition as Ac-V4(1-methyl-W)/H9A” value was “seven-fold more conjugate was required”.
In assay [2] (Table 2, expressed peptides), “GICVWQDWGAHRCTN [G(−1)/V4(5-OH-W)/W7(5-OH-W)/H9A/N14]” yielded an IC50 of 33000 nM. The molecule further came in with a Relative activity in assay [2] of 1.6. Also, the “fold loss in activity / times less active compared to Ac-V4W/H9A” value in assay [2] (setting [4]) was 27.5 fold.
Consider Ac-ICVVQDWGHHRCT-CONH2 [Ac-compstatin], for which, in assay [1], the Activity over compstatin is 3 × more.
Turning to “Ac-ICVDhtQDWGAHRCT-COOH [Ac-V4Dht/H9A −OH]”, the Activity over compstatin in assay [1] is reported as 5 × more.
On to “Ac-ICV(2-Igl)QDWGAHRCT-COOH [Ac-V4Igl/H9A −OH]”, for which the Activity over compstatin in assay [1] is 37 × more.
As to “Ac-ICV(Bpa)QDWGAHRCT-COOH [Ac-V4(Bpa)/H9A −OH]”, the Activity over compstatin in assay [1] was 49 × more. In addition, in assay [1] (analogs disclosed in WO2004/026328), the “fold greater activity than compstatin” value was 49 fold.
“Ac-ICV(1-Nal)QDWGAHRCT-COOH [Ac V4(1-Nal)/H9A −OH]”: the Activity over compstatin in assay [1] is given as 30 × more.
On to “Ac-ICV(1MeW)QDWGAHRCTRLIEDICLPRWGCLWEDD-NH2 [Albumin-binding peptide-compstatin]”, for which, in assay [2], the “complement inhibitory activity (in words)” value was “active in inhibiting complement activation” and the “amount of conjugate required to achieve the same inhibition as Ac-V4(1-methyl-W)/H9A” value is reported as “seven-fold more conjugate was required”.
Turning to “Ac-ICV(2-Nal)QDWGAHRCT-COOH [Ac V4(2-Nal)/H9A −OH]”, the Activity over compstatin in assay [1] is reported as 39 × more.
In the case of `CC[C@H](C)[C@H](NC(C)=O)C(=O)N[C@H]1CSSC[C@@H](C(=O)N[C@H](C(N)=O)[C@@H](C)O)NC(=O)[C@H](CCCNC(=N)N)NC(=O)[C@H](Cc2c[nH]cn2)NC(=O)[C@H](C)NC(=O)CNC(=O)[C@H](Cc2c[nH]c3ccccc23)NC(=O)[C@H](CC(=O)O)NC(=O)[C@H](CCC(N)=O)NC(=O)[C@H](Cc2ccc3ccccc3c2)NC(=O)[C@H](C(C)C)NC1=O` [Ac-V4(2-Nal)/H9A], in assay [2] (Table 5), inhibition was half-maximal at 545 nM (IC50). At C3 (Table 6, ITC, 25° C.), the ΔG was -9.5 kcal/mol and the “−TΔS” value came out at 4.8 kcal/mol. Moreover, at C3 (Table 6, relative to Wild-type), the ΔΔG was -0.1 kcal/mol, the ΔΔH was determined as 3.87 kcal/mol and the “−TΔΔS” value is -3.99 kcal/mol. The Activity over compstatin in assay [1] is 99 × more.
On to “Ac-ICVYQDWGAHRCT-CONH2 (Ac-ICVYQDWGAHRCT-NH2; disulfide 2-12 (inferred)) [Ac-V4Y/H9A]”, for which, in assay [1], the Activity over compstatin is given as 19 × more.
As to `CC[C@H](C)[C@H](N)C(=O)N[C@H]1CSSC[C@@H](C(=O)N[C@H](C(N)=O)[C@@H](C)O)NC(=O)[C@H](CCCN=C(N)N)NC(=O)[C@H](Cc2cnc[nH]2)NC(=O)[C@H](Cc2cnc[nH]2)NC(=O)CNC(=O)[C@H](Cc2c[nH]c3ccccc23)NC(=O)[C@H](CC(=O)O)NC(=O)[C@H](CCC(N)=O)NC(=O)[C@H](C(C)C)NC(=O)[C@H](C(C)C)NC1=O` [Compstatin], in assay [3], the IC50 was 12000 nM.
As to “GICVWQDWGAHRCTN [G(−1)/V4W/H9A/N14, bacterially expressed compstatin analog]”, in assay [2], the Activity over compstatin worked out at 45 × more and the Relative activity was 45. This molecule yielded a 50% inhibitory concentration (IC50) in assay [2] (Table 2, expressed peptides) of 1200 nM.
